Measured values: paper PMC5068747, “Using C. elegans Forward and Reverse Genetics to Identify New Compounds with Anthelmintic Activity” (PLoS Neglected Tropical Diseases, 2016)
Like-named read-outs stand apart in the source and are kept apart here.

Legend:
[1] = tested on: C. elegans mitochondrial complex II (mev-1, sdha-1, sdhb-1, sdhd-1) mutant strains; assay: Resistance of mitochondrial complex II mutant MMP strains to CID 2747322; assay type: in vivo, Caenorhabditis elegans
Excerpt: CID 2747322 shares some structural similarity to the WACT-11 compound identified by. […] This led us to examine MMP strains with mutations in the other three mitochondrial complex II subunits; sdha-1, sdhb-1 and sdhd-1, to see if any of these strains are also resistant to CID 2747322. For thirteen strains with sdha-1 missense mutations, three are resistant. For eight strains with sdhb-1 missense mutations, two are resistant. For sdhd-1, one of five MMP strains is resistant (Table 5). To better understand how these different alleles might alter drug effectiveness, we mapped all of these mutations plus gk3613 onto an X-ray resolved protein crystal structure of the mitochondrial complex II of Ascaris suum (PDB: 3VRB) (Fig 3a).

[2] = tested on: C. elegans VC2010 (wild type); assay: WormScan screen of C. elegans growth, fecundity, motility and mortality; assay type: in vivo, Caenorhabditis elegans; conditions: Caenorhabditis elegans, 120 h, 5 days exposure
Experimental: All compound libraries were stored in 96-well plates, with 80 drugs per plate (columns 1 and 12 left empty). A BioGrid BG600 pinning robot (Digilab / BioRobotics) was used for compound transfer. The robot uses a 96-pin tool (0.7 mm dia.) to transfer a nominal volume of 340 nL of compound. For retesting, compounds were hand pinned from the original library plates to assay plates using a single 0.7 mm dia. pin. The assay plates were 96-well clear flat-bottom microplates containing 2% χ1666 E.coli bacteria in 0.5X Liquid Nematode Growth Media (LNGM) plus cholesterol (Bacteria were mass-grown in rich media, and harvested by centrifugation to produce a thick paste of bacterial cells that was kept frozen at -20°C. Cells were resuspended at 2% W/V in 0.5X LNGM to produce liquid worm food). Using a COPAS Biosort (Union Biometrica), two L4 to young adult stage VC2010 worms were added to each well of the plate in a final volume of 45 μL. After five days of exposure to the compounds, the plates were scanned and the data analyzed. A five day time period was chosen to be able to observe effects over all stages of the life cycle and through at least one round of replication. The initial proof-of-principle primary screen was performed manually using a dissecting microscope. Phenotypes scored included decreased motility, reduced brood size, and/or death as described previously. For high throughput screening of the Chembridge and Maybridge compound libraries we used the program WormScan, which was adapted for screening 96-well flat-bottom LNGM plates. Using WormScan it was possible to screen four 96-well plates at a time. Plates were scanned twice, at a resolution of 1200 dots per inch, 16-bit grayscale, producing a jpeg image. The light intensity produced by the scanner was sufficient to cause negative phototaxis equivalent to a physical stimulus for mortality determination. The time required to scan four 96-well plates using an Epson Perfection V700 Photo Scanner was less than ten minutes. The time to screen a single plate was less than 1.2 minutes, with less than ten seconds between scans.
WormScan was used to screen for the same phenotypes as in the manual screen (reduced brood size, reduced behavior/motility response and increased mortality). Two sequential scans for each 96-well plate were aligned to a reference region of interest (ROI). Image analysis was based on a difference image score calculated for each ROI. The difference image score (WormScan score) was normalized using a “percent of control” method to derive a normalized WormScan score. […] Wild-type growth in 1% DMSO (Fig 1A) results in a normalized WormScan score of 100. Exposure to 50 nM ivermectin gives a score of 0 (Fig 1C), and complete absence of worms gives a score of 0 (Fig 1D). For the primary screen the WormScan score was calculated using custom macro scripts written for Fiji. For secondary screening and any subsequent studies the WormScan score was calculated using a standalone Java program (See supplemental). Probit regression of mortality was calculated using Mathematica 8.0.

[3] = tested on: Human embryonic kidney (HEK293) cells; assay: HEK293 viability, MTT colorimetric assay; assay type: cell-based; conditions: Homo sapiens, read-out: Mammalian IC50
Experimental: Potential anthelmintic compounds identified from primary screening were further tested against mammalian cells and yeast to determine whether they had deleterious effects in those organisms. Human embryonic kidney (HEK293) cells were grown in Dulbecco’s Modified Eagle’s Medium (DMEM; Sigma) containing 5% fetal bovine serum (FBS; Sigma) in 96-well plates tissue culture plates. Compounds were added 24h post-plating at 10, 30, 100, or 300 μM final concentrations. Dimethyl sulfoxide (DMSO) was used as a negative control at 0.1%. Cells were treated for 24 or 48 hours, after which time viability was assessed using a 3-(4,5-dimethylthiazol-2-yl)-2,5-diphenyltetrazolium bromide (MTT) colorimetric assay. Percent viability was determined by comparing treatment values to DMSO control values.

[4] = tested on: C. elegans pink-1 mutant strains; assay: Resistance of pink-1 mutant strains (MMP / knockout) to CID 2747322; assay type: in vivo, Caenorhabditis elegans
[5] = tested on: C. elegans RB2119 (acr-23(ok2804), monepantel-resistant); assay: IC50 on amino-acetonitrile resistant C. elegans strain; assay type: in vivo, Caenorhabditis elegans; conditions: Caenorhabditis elegans, 120 h; 5 days exposure, 2 L4 per well, three biological replicates; read-out: IC50, strain RB2119 (amino-acetonitriles)

SMILES: COc1ccc(OCCNC(=O)c2ccccc2C(F)(F)F)cc1 [CID 2747322, N-[2-(4-methoxyphenoxy)ethyl]-2-(trifluoromethyl)benzamide]
- Resistance ([1]; strain VC20295, sdhd-1 A30V): none
- Resistance ([1]; strain VC20401, sdhb-1 S209L): resistant
- Resistance ([1]; strain VC20417, sdha-1 E305K): none
- Resistance ([1]; strain VC20501, mev-1 S178N): none
- Resistance ([1]; strain VC20587, sdhb-1 E294K): none
- Resistance ([1]; strain VC20602, mev-1 G77S): resistant
- Resistance ([1]; strain VC30090, sdha-1 G363E): sensitive
- Resistance ([1]; strain VC30107, sdha-1 S292T): sensitive
- Resistance ([1]; strain VC30120, sdhd-1 L59F): none
- Resistance ([1]; strain VC40073, sdha-1 S142F): sensitive
- Resistance ([1]; strain VC40186, sdhb-1 D192E): none
- Resistance ([1]; strain VC40193, sdhb-1 T285I): resistant
- Resistance ([1]; strain VC40304, sdha-1 P385S): none
- Resistance ([1]; strain VC40350, sdha-1 V131I): none
- Resistance ([1]; strain VC40364, sdhb-1 N118I): sensitive
- Resistance ([1]; strain VC40386, sdhd-1 A97V): resistant
- Resistance ([1]; strain VC40391, sdha-1 G335E): resistant
- Resistance ([1]; strain VC40423, sdhb-1 I280S): sensitive
- Resistance ([1]; strain VC40533, sdha-1 R482C): resistant
- Resistance ([1]; strain VC40570, sdhd-1 L120F): none
- Resistance ([1]; strain VC40576, sdha-1 D317N): sensitive
- Resistance ([1]; strain VC40631, sdha-1 H504Y): none
- Resistance ([1]; strain VC40752, sdhb-1 A34V): sensitive
- Resistance ([1]; strain VC40764, sdha-1 A425V): sensitive
- Resistance ([1]; strain VC40765, sdhb-1 L197F): none
- Resistance ([1]; strain VC40770, sdha-1 E472K): none
- Resistance ([1]; strain VC40781, mev-1 Y152D): resistant
- Resistance ([1]; strain VC40799, mev-1 R52C): none
- Resistance ([1]; strain VC40903, sdhd-1 D36N): none
- Resistance ([1]; strain VC40934, mev-1 G88E): none
- Resistance ([1]; strain VC41025, sdha-1 S570F): sensitive
- IC50 ([2]; 2 L4 per well, three biological replicates, read-out: IC50, strain VC2010 (wild type)): 18 µM
- IC50 ([2]; C. elegans, read-out: Nematode IC50): 18 µM
- IC50 [3]: 171 µM
- Resistance ([4]; strain RB2547, pink-1 Knockout): none
- Resistance ([4]; strain VC20205, pink-1 W562stop): none
- Resistance ([4]; strain VC20423, pink-1 V373I): none
- Resistance ([4]; strain VC20470, pink-1 E162K): none
- Resistance ([4]; strain VC20521, pink-1 P226S): sensitive
- Resistance ([4]; strain VC20546, pink-1 P32L): sensitive
- Resistance ([4]; strain VC20588, pink-1 A628T): none
- Resistance ([4]; strain VC30104, pink-1 Knockout): none
- Resistance ([4]; strain VC30182, pink-1 G415E): none
- Resistance ([4]; strain VC40096, pink-1 M1I): none
- Resistance ([4]; strain VC40194, pink-1 D378N): resistant
- Resistance ([4]; strain VC40287, pink-1 S341N): resistant
- Resistance ([4]; strain VC40373, pink-1 A365T): none
- Resistance ([4]; strain VC40385, pink-1 L232F): resistant
- Resistance ([4]; strain VC40392, pink-1 T65I): none
- Resistance ([4]; strain VC40527, pink-1 V334I): none
- Resistance ([4]; strain VC40694, pink-1 M556L): resistant
- Resistance ([4]; strain VC40738, pink-1 E353K): none
- Resistance ([4]; strain VC41008, pink-1 L180F): resistant
- IC50 [5]: 5 µM
